± gives the expanded uncertainty stated by the source.
Test: activity coefficient (dimensionless); of the first substance listed, at infinite dilution; xn = mol fraction of the nth substance listed
Conditions: 101 kPa, Liquid, x1 = 0

Row | Structure (SMILES) | activity coefficient (323 K, Chromatography) | activity coefficient (343 K, Chromatography) | activity coefficient (303 K, Chromatography) | activity coefficient (303 K, Differential ebulliometry) | activity coefficient (323 K, Differential ebulliometry) | activity coefficient (343 K, Differential ebulliometry)
1 | ClCCCl [1,2-dichloroethane] + CCCCCCCC[n+]1ccn(C)c1.F[B-](F)(F)F | 0.93 ± 0.09 | 0.95 ± 0.1 |  |  |  | 
2 | ClCCCl [1,2-dichloroethane] + CCCCCCn1cc[n+](C)c1.F[B-](F)(F)F | 1.06 ± 0.11 | 1.19 ± 0.12 |  |  |  | 
3 | ClCCCl [1,2-dichloroethane] + CCCCn1cc[n+](C)c1.F[B-](F)(F)F | 1.51 ± 0.16 | 1.63 ± 0.17 |  |  |  | 
4 | ClCCCl [1,2-dichloroethane] + CCn1cc[n+](C)c1.F[B-](F)(F)F | 1.32 ± 0.14 | 1.37 ± 0.14 |  |  |  | 
5 | CC(C)CC(C)(C)C [2,2,4-trimethylpentane] + CCCCCCCC[n+]1ccn(C)c1.F[B-](F)(F)F | 17.7 ± 1.9 | 17 ± 1.8 |  |  |  | 
6 | CC(C)CC(C)(C)C [2,2,4-trimethylpentane] + CCCCCCn1cc[n+](C)c1.F[B-](F)(F)F |  | 44.5 ± 4.7 | 54.1 ± 5.7 |  |  | 
7 | CC(C)CC(C)(C)C [2,2,4-trimethylpentane] + CCCCn1cc[n+](C)c1.F[B-](F)(F)F | 127 ± 13 | 125 ± 13 | 145 ± 15 |  |  | 
8 | CC(C)CC(C)(C)C [2,2,4-trimethylpentane] + CCn1cc[n+](C)c1.F[B-](F)(F)F | 168 ± 18 | 162 ± 17 | 222 ± 23 |  |  | 
9 | CC(C)=O [acetone] + CCCCCCCC[n+]1ccn(C)c1.F[B-](F)(F)F | 0.78 ± 0.08 | 0.83 ± 0.09 |  |  |  | 
10 | CC(C)=O [acetone] + CCCCCCn1cc[n+](C)c1.F[B-](F)(F)F | 0.85 ± 0.09 | 0.91 ± 0.09 |  |  |  | 
11 | CC(C)=O [acetone] + CCCCn1cc[n+](C)c1.F[B-](F)(F)F | 1.05 ± 0.11 | 1.11 ± 0.11 |  |  |  | 
12 | CC(C)=O [acetone] + CCn1cc[n+](C)c1.F[B-](F)(F)F | 1.11 ± 0.11 | 1.14 ± 0.12 |  |  |  | 
13 | c1ccccc1 [benzene] + CCCCCCCC[n+]1ccn(C)c1.F[B-](F)(F)F | 1.29 ± 0.13 | 1.29 ± 0.13 | 1.28 ± 0.13 |  |  | 
14 | c1ccccc1 [benzene] + CCCCCCn1cc[n+](C)c1.F[B-](F)(F)F | 1.65 ± 0.17 | 1.68 ± 0.18 | 1.63 ± 0.17 |  |  | 
15 | c1ccccc1 [benzene] + CCCCn1cc[n+](C)c1.F[B-](F)(F)F | 2.43 ± 0.26 | 2.48 ± 0.26 | 2.39 ± 0.25 |  |  | 
16 | c1ccccc1 [benzene] + CCn1cc[n+](C)c1.F[B-](F)(F)F | 2.51 ± 0.26 | 2.47 ± 0.26 | 2.42 ± 0.25 |  |  | 
17 | CCC(C)=O [butanone] + CCCCCCCC[n+]1ccn(C)c1.F[B-](F)(F)F | 1.01 ± 0.1 | 1.04 ± 0.11 |  |  |  | 
18 | CCC(C)=O [butanone] + CCCCCCn1cc[n+](C)c1.F[B-](F)(F)F | 1.14 ± 0.12 | 1.21 ± 0.12 |  |  |  | 
19 | CCC(C)=O [butanone] + CCCCn1cc[n+](C)c1.F[B-](F)(F)F | 1.64 ± 0.17 | 1.72 ± 0.18 |  |  |  | 
20 | CCC(C)=O [butanone] + CCn1cc[n+](C)c1.F[B-](F)(F)F | 1.66 ± 0.17 | 1.77 ± 0.18 |  |  |  | 
21 | C1CCCCC1 [cyclohexane] + CCCCCCCC[n+]1ccn(C)c1.F[B-](F)(F)F | 7.99 ± 0.84 | 7.36 ± 0.77 | 8.52 ± 0.9 |  |  | 
22 | C1CCCCC1 [cyclohexane] + CCCCCCn1cc[n+](C)c1.F[B-](F)(F)F |  |  |  | 18.6 ± 1.9 | 16.5 ± 1.6 | 15.2 ± 1.5

Row | Structure (SMILES) | activity coefficient (323 K, Chromatography) | activity coefficient (343 K, Chromatography) | activity coefficient (303 K, Chromatography) | activity coefficient (303 K, Differential ebulliometry) | activity coefficient (323 K, Differential ebulliometry) | activity coefficient (343 K, Differential ebulliometry)
23 | C1CCCCC1 [cyclohexane] + CCCCn1cc[n+](C)c1.F[B-](F)(F)F | 38.4 ± 4 | 32.8 ± 3.5 | 44.9 ± 4.7 |  |  | 
24 | C1CCCCC1 [cyclohexane] + CCn1cc[n+](C)c1.F[B-](F)(F)F | 46.2 ± 4.9 | 38.9 ± 4.1 | 53.7 ± 5.7 |  |  | 
25 | CCOCC [diethyl ether] + CCCCCCCC[n+]1ccn(C)c1.F[B-](F)(F)F | 3.2 ± 0.34 | 3.39 ± 0.36 |  |  |  | 
26 | CCOCC [diethyl ether] + CCCCCCn1cc[n+](C)c1.F[B-](F)(F)F |  | 2.53 ± 0.27 |  |  |  | 
27 | CCOCC [diethyl ether] + CCCCn1cc[n+](C)c1.F[B-](F)(F)F |  | 8.05 ± 0.85 |  |  |  | 
28 | CCO [ethanol] + CCCCCCCC[n+]1ccn(C)c1.F[B-](F)(F)F | 1.24 ± 0.13 | 1.1 ± 0.11 |  |  |  | 
29 | CCO [ethanol] + CCCCCCn1cc[n+](C)c1.F[B-](F)(F)F | 1.47 ± 0.15 | 1.31 ± 0.13 |  |  |  | 
30 | CCO [ethanol] + CCCCn1cc[n+](C)c1.F[B-](F)(F)F | 1.91 ± 0.2 | 1.63 ± 0.17 |  |  |  | 
31 | CCO [ethanol] + CCn1cc[n+](C)c1.F[B-](F)(F)F | 0.76 ± 0.08 |  |  |  |  | 
32 | CCOC(C)=O [ethyl acetate] + CCCCCCCC[n+]1ccn(C)c1.F[B-](F)(F)F | 1.55 ± 0.16 | 1.62 ± 0.17 |  |  |  | 
33 | CCOC(C)=O [ethyl acetate] + CCCCCCn1cc[n+](C)c1.F[B-](F)(F)F | 5.58 ± 0.59 | 5.48 ± 0.58 |  |  |  | 
34 | CCOC(C)=O [ethyl acetate] + CCCCn1cc[n+](C)c1.F[B-](F)(F)F | 2.86 ± 0.3 | 2.99 ± 0.31 |  |  |  | 
35 | CCOC(C)=O [ethyl acetate] + CCn1cc[n+](C)c1.F[B-](F)(F)F | 3.08 ± 0.32 | 3.32 ± 0.35 |  |  |  | 
36 | CCc1ccccc1 [ethylbenzene] + CCCCCCCC[n+]1ccn(C)c1.F[B-](F)(F)F | 2.35 ± 0.25 | 2.66 ± 0.28 |  |  |  | 
37 | CCc1ccccc1 [ethylbenzene] + CCCCCCn1cc[n+](C)c1.F[B-](F)(F)F | 3.63 ± 0.38 | 4.05 ± 0.43 |  |  |  | 
38 | CCc1ccccc1 [ethylbenzene] + CCCCn1cc[n+](C)c1.F[B-](F)(F)F | 6.65 ± 0.7 | 7.2 ± 0.76 |  |  |  | 
39 | CCc1ccccc1 [ethylbenzene] + CCn1cc[n+](C)c1.F[B-](F)(F)F | 7.05 ± 0.74 | 6.87 ± 0.72 |  |  |  | 
40 | CCCCCCC [heptane] + CCCCCCCC[n+]1ccn(C)c1.F[B-](F)(F)F | 16.3 ± 1.7 | 15.2 ± 1.6 | 16.7 ± 1.8 |  |  | 
41 | CCCCCCC [heptane] + CCCCCCn1cc[n+](C)c1.F[B-](F)(F)F | 39.9 ± 4.2 | 33.6 ± 3.5 | 47.7 ± 5 |  |  | 
42 | CCCCCCC [heptane] + CCCCn1cc[n+](C)c1.F[B-](F)(F)F | 115 ± 12 | 99 ± 10 | 134 ± 14 |  |  | 
43 | CCCCCCC [heptane] + CCn1cc[n+](C)c1.F[B-](F)(F)F | 173 ± 18 | 139 ± 15 | 202 ± 21 |  |  | 
44 | C=CCCCC [hex-1-ene] + CCCCCCCC[n+]1ccn(C)c1.F[B-](F)(F)F | 7.51 ± 0.79 | 7.42 ± 0.78 | 7.92 ± 0.83 |  |  | 

Row | Structure (SMILES) | activity coefficient (323 K, Chromatography) | activity coefficient (343 K, Chromatography) | activity coefficient (303 K, Chromatography) | activity coefficient (303 K, Differential ebulliometry) | activity coefficient (323 K, Differential ebulliometry) | activity coefficient (343 K, Differential ebulliometry)
45 | C=CCCCC [hex-1-ene] + CCCCCCn1cc[n+](C)c1.F[B-](F)(F)F | 14.8 ± 1.6 | 14.8 ± 1.6 | 15.9 ± 1.7 |  |  | 
46 | C=CCCCC [hex-1-ene] + CCCCn1cc[n+](C)c1.F[B-](F)(F)F | 32.2 ± 3.4 | 30.5 ± 3.2 | 35.4 ± 3.7 |  |  | 
47 | C=CCCCC [hex-1-ene] + CCn1cc[n+](C)c1.F[B-](F)(F)F | 43.2 ± 4.5 | 36.6 ± 3.9 | 46.2 ± 4.9 |  |  | 
48 | CCCCCC [hexane] + CCCCCCCC[n+]1ccn(C)c1.F[B-](F)(F)F | 12.8 ± 1.4 | 12.2 ± 1.3 | 13.2 ± 1.4 |  |  | 
49 | CCCCCC [hexane] + CCCCCCn1cc[n+](C)c1.F[B-](F)(F)F | 29.6 ± 3.1 | 26.1 ± 2.7 | 34.8 ± 3.7 |  |  | 
50 | CCCCCC [hexane] + CCCCn1cc[n+](C)c1.F[B-](F)(F)F | 76.5 ± 8.1 | 67.5 ± 7.1 | 93.4 ± 9.8 |  |  | 
51 | CCCCCC [hexane] + CCn1cc[n+](C)c1.F[B-](F)(F)F | 113 ± 12 | 64.8 ± 6.8 | 125 ± 13 |  |  | 
52 | CO [methanol] + CCCCCCCC[n+]1ccn(C)c1.F[B-](F)(F)F | 0.94 ± 0.1 | 0.85 ± 0.09 | 1.09 ± 0.11 |  |  | 
53 | CO [methanol] + CCCCCCn1cc[n+](C)c1.F[B-](F)(F)F | 1.08 ± 0.11 | 0.99 ± 0.1 | 1.19 ± 0.12 |  |  | 
54 | CO [methanol] + CCCCn1cc[n+](C)c1.F[B-](F)(F)F | 1.21 ± 0.12 | 1.07 ± 0.11 | 1.32 ± 0.14 |  |  | 
55 | CO [methanol] + CCn1cc[n+](C)c1.F[B-](F)(F)F | 0.43 ± 0.05 | 0.42 ± 0.05 | 0.43 ± 0.05 |  |  | 
56 | CCCO [propan-1-ol] + CCCCCCCC[n+]1ccn(C)c1.F[B-](F)(F)F | 1.44 ± 0.15 | 1.27 ± 0.13 |  |  |  | 
57 | CCCO [propan-1-ol] + CCCCCCn1cc[n+](C)c1.F[B-](F)(F)F | 1.86 ± 0.19 | 1.63 ± 0.17 |  |  |  | 
58 | CCCO [propan-1-ol] + CCCCn1cc[n+](C)c1.F[B-](F)(F)F | 2.64 ± 0.28 | 2.28 ± 0.24 |  |  |  | 
59 | CCCO [propan-1-ol] + CCn1cc[n+](C)c1.F[B-](F)(F)F | 0.95 | 0.87 |  |  |  | 
60 | CC(C)O [propan-2-ol] + CCCCCCCC[n+]1ccn(C)c1.F[B-](F)(F)F | 1.41 ± 0.15 | 1.27 ± 0.13 |  |  |  | 
61 | CC(C)O [propan-2-ol] + CCCCCCn1cc[n+](C)c1.F[B-](F)(F)F | 1.61 ± 0.17 | 1.57 ± 0.16 |  |  |  | 
62 | CC(C)O [propan-2-ol] + CCCCn1cc[n+](C)c1.F[B-](F)(F)F | 2.47 ± 0.11 | 2.17 ± 0.1 |  |  |  | 
63 | CC(C)O [propan-2-ol] + CCn1cc[n+](C)c1.F[B-](F)(F)F | 1.05 ± 0.11 | 1.01 ± 0.1 |  |  |  | 
64 | ClC(Cl)(Cl)Cl [tetrachloromethane] + CCCCCCCC[n+]1ccn(C)c1.F[B-](F)(F)F | 2.39 ± 0.25 | 2.62 ± 0.28 |  |  |  | 

From the NIST ThermoML archive (doi:10.1021/je050544m)
